Values quoted from earlier work, collected in patent US8227490B2, “Use of 1-hydroxy-2-pyridones for the treatment of seborrheic dermatitis” (Medicis Pharmaceutical Corporation, priority 1996, dated 2012).

Tested on: gram-positive bacteria
Settings: Kinsman et al., J. Med. Microbiol. (1983)

Which “activity in vitro against gram-positive bacteria” value does the source give for `CC(=O)N1CCN(c2ccc(OCC3COC(Cn4ccnc4)(c4ccc(Cl)cc4Cl)O3)cc2)CC1` (stereo not shown) [ketoconazole] here?
Its value is “inactive”.
